In brackets after ≈: the same amount, converted by molar mass. Where two headings read alike, the source gives them in different places.
Assays:
[1] = tested on: NCI-H358 cells; assay: NCI-H358 CTG proliferation assay (120 h) (NSCLC, G12C); assay type: cell-based, human; details: Homo sapiens
Summary of the method: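 IC50 values derive from four-parameter nonlinear regression of CellTiter-Glo viability (RLU relative to DMSO wells) after 120 h of exposure. Cells were plated in RPMI-1640 + 10% FCS at 2000 per well (assay 1) or 200 per well (assay 2). Untreated cells were measured at compound addition as T0.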

[2] = tested on: NCI-H2122 cells; assay: NCI-H2122 CTG proliferation assay (120 h) (NSCLC, G12C); assay type: cell-based; details: Homo sapiens
Summary of the method: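 Proliferation was read by CellTiter-Glo luminescence after 120 h of compound exposure, starting one day after seeding 200 NCI-H2122 (G12C) cells per well in RPMI/10% FCS. RLU relative to DMSO wells gave percent viability, and four-parameter nonlinear regression gave IC50.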

[3] = tested on: SAS cells; assay: SAS CTG proliferation assay (120 h) (HNSCC, wt amplified); assay type: cell-based
Summary of the method: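 Viability measured by CellTiter-Glo luminescence, normalized to DMSO wells, after 120 h compound treatment of SAS cells. Cells grown in DMEM:F12 plus 10% FCS at 300 cells per well, dosed the day after seeding. Four-parameter fit gives IC50.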

[4] = tested on: SK-CO-1 cells; assay: SK-CO-1 CTG proliferation assay (120 h) (CRC, G12V); assay type: cell-based; details: Homo sapiens; SK-CO-1 cells (CRC, G12V), CTG 120 h
Summary of the method: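 Compound exposure lasted 120 h in KRAS G12V SK-CO-1 cells seeded overnight at 500 cells/well in 10% FCS EMEM. CellTiter-Glo RLU normalised to DMSO wells gave percent viability, and a four-parameter model fit yielded IC50.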

[5] = biological target: CYP3A4 (Homo sapiens (Human), UniProt P08684); assay: Mechanism based inhibition of CYP3A4 assay (MBI 3A4); assay type: in vitro ADME; details: hydroxy-midazolam formation after 30 min vs 0 min preincubation, 25 uM, human liver microsomes
Procedure: After preincubation, the incubate is diluted 1:10 and the substrate midazolam is added for the main incubation (15 min). The main incubation is quenched with acetonitrile and the formation of hydroxy-midazolam is quantified via LC/MS-MS. The formation of hydroxy-midazolam from the 30 min preincubation relative to the formation from the 0 min preincubation is used as a readout. Values of less than 100% mean that the substrate midazolam is metabolized to a lower extent upon 30 min preincubation compared to 0 min preincubation. In general low effects upon 30 min preincubation are desired (corresponding to values close to 100%/not different to the values determined with water control).

[6] = Solubility measurement (DMSO solution method), McIlvaine buffer pH 4.5 or 6.8; assay type: physicochemical; details: aqueous buffer, kinetic from dmso stock, DMSO stock diluted to 250 μM, 24 h shaking at ambient temperature
Summary of the method: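 Filtrate concentration by LC-UV, calibrated to a known-concentration reference dissolved completely in acetonitrile/water (1:1). Samples came from 250 µM final dilutions of DMSO stock in pH 4.5 or 6.8 McIlvaine buffer, shaken 24 h at ambient temperature, then filtered.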

[7] = assay 1, CTG, read-out: H358 (assay 1) IC50
[8] = assay 2, CTG, read-out: H358 (assay 2) IC50
[9] = McIlvaine buffer pH 4.5, read-out: solubility pH 4.5
[10] = McIlvaine buffer pH 6.8, read-out: solubility pH 6.8

CYP3A4, sequence (P08684 whole entry): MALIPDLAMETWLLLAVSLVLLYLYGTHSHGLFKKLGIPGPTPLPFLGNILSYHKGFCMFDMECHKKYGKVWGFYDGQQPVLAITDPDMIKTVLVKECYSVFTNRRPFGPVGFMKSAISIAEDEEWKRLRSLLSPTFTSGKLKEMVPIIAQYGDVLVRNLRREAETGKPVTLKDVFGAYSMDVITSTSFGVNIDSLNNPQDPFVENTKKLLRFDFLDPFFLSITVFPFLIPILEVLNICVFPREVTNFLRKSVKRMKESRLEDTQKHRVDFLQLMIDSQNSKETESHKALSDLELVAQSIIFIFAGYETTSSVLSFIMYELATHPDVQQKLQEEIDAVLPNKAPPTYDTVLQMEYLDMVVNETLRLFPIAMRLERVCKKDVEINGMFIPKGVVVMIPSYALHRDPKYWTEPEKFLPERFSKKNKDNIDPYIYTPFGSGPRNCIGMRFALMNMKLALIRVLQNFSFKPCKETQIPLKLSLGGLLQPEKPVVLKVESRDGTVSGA

Row | SMILES | IC50 [1, 7] [nM] | IC50 [1, 8] [nM] | IC50 [2] [nM] | IC50 [4] [nM] | MBI 3A4 [5] [%] | solubility at 24 h [6, 9] [µg/mL] | solubility at 24 h [6, 10] [µg/mL] | IC50 [3] [nM]
1 | C[C@H](Oc1cc(C2COCCO2)nc(-c2noc3c2CCC[C@@]32CCCc3sc(N)c(C#N)c32)n1)[C@@H]1CCCN1C (some centres unmarked) [II-95] |  | 400 | 1420 | 341 | 68 | > 134 | > 121 | 5180
2 | C[C@H](Oc1cc(-c2cccc(CO)c2)nc(-c2noc3c2CCC[C@@]32CCCc3sc(N)c(C#N)c32)n1)[C@@H]1CCCN1C [II-97] |  | 242 | 2020 | 212 | 76 | 40 (≈ 67 µM) | < 1 | 646
3 | C[C@H](Oc1cc(-c2ccn(C3CC3)n2)nc(-c2noc3c2CCC[C@@]32CCCc3sc(N)c(C#N)c32)n1)[C@@H]1CCCN1C [II-98] |  | 242 | 1020 | 137 | 74 | 83 (≈ 139 µM) | < 1 | 30
4 | C[C@H](Oc1cc(N2CCC(C#N)C2)nc(-c2noc3c2CCC[C@@]32CCCc3sc(N)c(C#N)c32)n1)[C@@H]1CCCN1C (some centres unmarked) [II-99] |  | 1340 | 1160 | 159 | 78 | 115 (≈ 197 µM) | 84 (≈ 144 µM) | 88
5 | Cc1cn(-c2cc(O[C@@H](C)[C@@H]3CCCN3C)nc(-c3noc4c3CCC[C@@]43CCCc4sc(N)c(C#N)c43)n2)nn1 [II-106] |  | 2250 | 2860 | 491 | 61 | 107 (≈ 187 µM) | 13 (≈ 22.7 µM) | 96
6 | C[C@H](Oc1cc(-n2ccc(Br)n2)nc(-c2noc3c2CCC[C@@]32CCCc3sc(N)c(C#N)c32)n1)[C@@H]1CCCN1C [II-110] |  | 217 | 953 | 126 | 67 | 3 (≈ 4.72 µM) | < 1 | 68
7 | C[C@H](O)Cn1ccc(-c2cc(O[C@@H](C)[C@@H]3CCCN3C)nc(-c3noc4c3CCC[C@@]43CCCc4sc(N)c(C#N)c43)n2)n1 [II-112] |  | 141 | 197 | 34 | 81 | > 139 | 121 (≈ 197 µM) | 54
8 | C[C@H](Oc1cc(-n2cc(C3CC3)nn2)nc(-c2noc3c2CCC[C@@]32CCCc3sc(N)c(C#N)c32)n1)[C@@H]1CCCN1C [II-118] |  | 295 | 1010 | 3860 | 45 | 32 (≈ 53.5 µM) | < 1 | 931
9 | C[C@H](Oc1cc(-n2ccnc2)nc(-c2noc3c2CCC[C@@]32CCCc3sc(N)c(C#N)c32)n1)[C@@H]1C[C@@H](F)CN1C [II-120] |  | 190 | 1090 | 126 | 71 | 106 (≈ 184 µM) | < 1 | 488
10 | COCc1cn(-c2cc(O[C@@H](C)[C@@H]3CCCN3C)nc(-c3noc4c3CCC[C@@]43CCCc4sc(N)c(C#N)c43)n2)nn1 [II-121] |  | 268 | 580 | 57 | 56 | 109 (≈ 181 µM) | 69 (≈ 115 µM) | 560
11 | CNC(=O)c1cn(-c2cc(O[C@@H](C)[C@@H]3CCCN3C)nc(-c3noc4c3CCC[C@@]43CCCc4sc(N)c(C#N)c43)n2)nn1 [II-122] |  | 823 | 961 | 52 | 68 | 122 (≈ 198 µM) | 98 (≈ 159 µM) | 889
12 | C[C@H](Oc1cc(-n2cc(-c3cccnc3)nn2)nc(-c2noc3c2CCC[C@@]32CCCc3sc(N)c(C#N)c32)n1)[C@@H]1CCCN1C [II-123] |  | 439 | 878 | 96 | 64 | < 1 | < 1 | 113

Now from value to molecule, other results behind:

Row | IC50 [1, 7] [nM] | IC50 [1, 8] [nM] | IC50 [2] [nM] | IC50 [4] [nM] | MBI 3A4 [5] [%] | solubility at 24 h [6, 9] [µg/mL] | solubility at 24 h [6, 10] [µg/mL] | SMILES | IC50 [3] [nM]
13 | 78 | 19 | 1090 | 78 | 68 | 118 (≈ 196 µM) | < 1 | CO[C@@H]1C[C@@H]([C@H](C)Oc2cc(-c3ccn(C)n3)nc(-c3noc4c3CCC[C@@]43CCCc4sc(N)c(C#N)c43)n2)N(C)C1 [II-91] | 70
14 | 20 | 20 | 834 | 19 | 71 | > 126 | > 122 | C[C@H](Oc1cc([C@@H]2CCOC2)nc(-c2noc3c2CCC[C@@]32CCCc3sc(N)c(C#N)c32)n1)[C@@H]1CCCN1C [II-94] | 82
15 |  | 98 | 307 | 67 | 85 | 107 (≈ 187 µM) | 2 (≈ 3.5 µM) | C[C@H](Oc1cc(-c2ccn(C)n2)nc(-c2noc3c2CCC[C@@]32CCCc3sc(N)c(C#N)c32)n1)[C@@H]1CCCN1C [II-96] | 148
16 |  | 46 | 847 | 31 | 79 | 3 (≈ 4.94 µM) | < 1 | C[C@H](Oc1cc(-n2cncc3ccnc2-3)nc(-c2noc3c2CCC[C@@]32CCCc3sc(N)c(C#N)c32)n1)[C@@H]1CCCN1C [II-105] | 55
17 |  | 78 | 441 | 106 | 63 | 117 (≈ 191 µM) | 61 (≈ 99.5 µM) | C[C@H](Oc1cc(-c2ccn(C3COC3)n2)nc(-c2noc3c2CCC[C@@]32CCCc3sc(N)c(C#N)c32)n1)[C@@H]1CCCN1C [II-109] | 20
18 |  | 139 | 858 | 51 | 76 | 22 (≈ 38.3 µM) | < 1 | C[C@H](Oc1cc(-c2cnsc2)nc(-c2noc3c2CCC[C@@]32CCCc3sc(N)c(C#N)c32)n1)[C@@H]1CCCN1C [II-111] | 57
19 |  | 123 | 680 | 64 | 85 | 41 (≈ 66.7 µM) | < 1 | COC(=O)c1ccc(-c2cc(O[C@@H](C)[C@@H]3CCCN3C)nc(-c3noc4c3CCC[C@@]43CCCc4sc(N)c(C#N)c43)n2)o1 [II-114] | 28
20 |  | 98 | 47 | 24 | 77 | > 183 | > 147 | C[C@H](Oc1cc(-c2ccn(C[C@@H](C)O)n2)nc(-c2noc3c2CCC[C@@]32CCCc3sc(N)c(C#N)c32)n1)[C@@H]1CCCN1C [II-117] | 22
21 |  | 42 | 251 | 37 | 52 | < 1 | < 1 | C[C@H](Oc1cc(-n2ccc(-c3ccccn3)n2)nc(-c2noc3c2CCC[C@@]32CCCc3sc(N)c(C#N)c32)n1)[C@@H]1CCCN1C [II-119] | 39
